# Data taken from patent publication US20210322382A1, “METHODS AND COMPOSITIONS FOR IMPROVED TREATMENT OF SINUS DISEASE” (Veloce BioPharma LLC, priority 2020, published 2021).
# Columns and labels:
# [1] = Stability of PVP-I solutions, USP method; format: physicochemical; conditions: aprotic DMSO solvent system, long periods of time
# Description: It is known that PVP-I aqueous solutions are difficult to stabilize at low concentrations over a long time. At concentrations less than about 0.7% PVP-I (w/w, aqueous), PVP-I aqueous solutions rapidly decay to yield complex mixtures of iodinated and iodine-free constituents. […] It is of additional novelty that even in the hydrated DMSO solutions prepared from aqueous PVP-I, increased stability is observed for the PVP-I component.
# [2] = aqueous solution; stated as known; cited from earlier work
# [3] = stated as known drawback of PVP-I; cited from earlier work
substance,measurement,setting,value
povidone-iodine [PVP-I],lowest PVP-I concentration prepared and maintained as stable composition,[1],0.1%
same,PVP-I concentration below which aqueous solutions rapidly decay,[2],"less than 0.7 % (w/w, aqueous)"
same,PVP-I concentration above which toxic to the sinuses,[3],above 2.2 % w/w
